How the values were obtained:
Human neurokinin (NK1) = molecular target: T1, Human neurokinin (NK1) (Homo sapiens, UniProt P25103); test: Radioligand binding, human neurokinin NK1 membranes, filtration, [125I]-Substance P; conditions: compound at 10 μM; [125I]-Substance P, filtration
T1 construct: purchased Perkin Elmer Biosignal
Summary of the method: (§1)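 Membranes from cloned human receptors were incubated with compound and radioligand for 1 hour at room temperature. Bound ligand was collected on 0.3% PEI-soaked filters, washed with cold 50 mM Tris-HCl pH 7.4, and counted by scintillation. Percent inhibition was computed against DMSO totals and reference-ligand nonspecific wells.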

Human melanocortin (MC5) = molecular target: T2, Human melanocortin (MC5) (Homo sapiens, UniProt P33032); test: Radioligand binding, human melanocortin MC5 membranes, FlashPlate, [125I]-NDP-αMSH; conditions: compound at 10 μM; [125I]-NDP-αMSH, FlashPlate
T2 construct: purchased Perkin Elmer Biosignal
Summary of the method: (§2)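 Cloned human receptor membranes were coated onto FlashPlate wells and incubated with radioligand and compound (added from a 0.5 mM DMSO daughter plate) for 1 hour at room temperature in the dark. Scintillation counting gave percent inhibition, with DMSO defining total and reference ligand defining non-specific binding.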

Human μ-opioid (MOP) = molecular target: T3, Human μ-opioid (MOP) (Homo sapiens, UniProt P35372); test: Radioligand binding, human μ-opioid (MOP) membranes, FlashPlate, [3H]-Naloxone; conditions: compound at 10 μM; [3H]-Naloxone, FlashPlate
T3 construct: purchased Perkin Elmer Biosignal
Summary of the method: as §2

Human δ-opioid (DOP) = molecular target: T4, Human δ-opioid (DOP) (Homo sapiens, UniProt P41143); test: Radioligand binding, human δ-opioid (DOP) membranes, FlashPlate, [3H]-Bremazocine; conditions: compound at 10 μM; [3H]-Bremazocine, FlashPlate
T4 construct: purchased Perkin Elmer Biosignal
Summary of the method: as §2

Mouse urotensin (mUR2) = molecular target: T5, Mouse urotensin (mUR2) (Mus musculus, UniProt Q8VIH9); test: Radioligand binding, mouse urotensin mUR2 membranes, FlashPlate, [125I]-Urotensin II; conditions: compound at 10 μM; [125I]-Urotensin II, FlashPlate
T5 construct: purchased Perkin Elmer Biosignal
T5 sequence (Q8VIH9 1-385): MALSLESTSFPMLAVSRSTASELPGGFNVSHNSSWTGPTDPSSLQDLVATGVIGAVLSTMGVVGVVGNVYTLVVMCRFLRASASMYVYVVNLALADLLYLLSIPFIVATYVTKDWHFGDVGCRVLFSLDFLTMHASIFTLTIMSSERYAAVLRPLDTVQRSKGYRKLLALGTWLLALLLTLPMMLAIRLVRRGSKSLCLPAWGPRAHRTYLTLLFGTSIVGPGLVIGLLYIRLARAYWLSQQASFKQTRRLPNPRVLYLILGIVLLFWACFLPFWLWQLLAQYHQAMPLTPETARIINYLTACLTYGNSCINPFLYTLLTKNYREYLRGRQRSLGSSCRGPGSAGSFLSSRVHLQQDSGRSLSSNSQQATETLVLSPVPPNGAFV
Summary of the method: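 Cloned mouse urotensin (mUR2) receptor membranes from Perkin Elmer Biosignal were immobilized in FlashPlate microplates using a proprietary coating. Each well got 19.5 μl buffer, then 0.5 μl of DMSO, reference ligand, or compound. Adding 5 μl of [125I]-Urotensin II, diluted to 5× final concentration in binding buffer, started binding. Plates were sealed with TopSeal-A and incubated 1 hour at room temperature in the dark. Wells were counted for 30 seconds each on a TopCount after a 60-second delay, and percentage inhibition was calculated.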

Human opioid (ORL1) = molecular target: T6, Human opioid (ORL1) (Homo sapiens, UniProt P41146); test: Radioligand binding, human opioid ORL1 membranes, FlashPlate, [125I]-Nociceptin; conditions: compound at 10 μM; [125I]-Nociceptin, FlashPlate
T6 construct: purchased Perkin Elmer Biosignal
Summary of the method: as §2

Human κ-Opioid (KOP) = molecular target: T7, Human κ-Opioid (KOP) (Homo sapiens, UniProt P41145); test: Radioligand binding, human κ-opioid (KOP) membranes, filtration, [3H]-Diprenorphine; conditions: compound at 10 μM; [3H]-Diprenorphine, filtration
T7 construct: purchased Perkin Elmer Biosignal
Summary of the method: as §1

Human Melanocortin (MC4) = molecular target: T8, Human Melanocortin (MC4) (Homo sapiens, UniProt P32245); test: Radioligand binding, human melanocortin MC4 membranes, FlashPlate, [125I]-NDP-αMSH; conditions: compound at 10 μM; [125I]-NDP-αMSH, FlashPlate
T8 construct: purchased Perkin Elmer Biosignal
Summary of the method: as §2

Human Melanocortin (MC3) = molecular target: T9, Human Melanocortin (MC3) (Homo sapiens, UniProt P41968); test: Radioligand binding, human melanocortin MC3 membranes, FlashPlate, [125I]-NDP-αMSH; conditions: compound at 10 μM; [125I]-NDP-αMSH, FlashPlate
T9 construct: purchased Perkin Elmer Biosignal
Summary of the method: as §2

[1] = molecular target: T10, Human neuropeptide Y (NPY-Y1) (Homo sapiens, UniProt P25929); test: Radioligand binding, human neuropeptide Y NPY-Y1 membranes, FlashPlate, [125I]-PYY; conditions: compound at 10 μM; [125I]-PYY, FlashPlate
T10 construct: purchased Perkin Elmer Biosignal
T10 sequence (P25929 1-384): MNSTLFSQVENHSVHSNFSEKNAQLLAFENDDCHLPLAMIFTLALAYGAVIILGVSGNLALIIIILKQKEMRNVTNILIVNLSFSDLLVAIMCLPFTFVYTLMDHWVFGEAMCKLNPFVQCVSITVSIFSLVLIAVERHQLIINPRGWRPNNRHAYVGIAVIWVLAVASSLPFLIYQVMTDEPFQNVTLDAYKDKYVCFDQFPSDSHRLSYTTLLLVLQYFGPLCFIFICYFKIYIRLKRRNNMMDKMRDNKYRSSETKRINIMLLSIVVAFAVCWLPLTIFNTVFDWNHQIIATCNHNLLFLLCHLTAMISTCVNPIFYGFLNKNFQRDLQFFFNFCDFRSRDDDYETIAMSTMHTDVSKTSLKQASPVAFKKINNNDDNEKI
Summary of the method: as §2

[2] = molecular target: T11, Human melanin-concentrating hormone (MCH1) (Homo sapiens, UniProt Q99705); test: Radioligand binding, human melanin-concentrating hormone MCH1 membranes, FlashPlate, [125I]-S36057; conditions: compound at 10 μM; [125I]-S36057, FlashPlate
T11 construct: purchased Perkin Elmer Biosignal
Summary of the method: as §2

T4 sequence (P41143 whole entry): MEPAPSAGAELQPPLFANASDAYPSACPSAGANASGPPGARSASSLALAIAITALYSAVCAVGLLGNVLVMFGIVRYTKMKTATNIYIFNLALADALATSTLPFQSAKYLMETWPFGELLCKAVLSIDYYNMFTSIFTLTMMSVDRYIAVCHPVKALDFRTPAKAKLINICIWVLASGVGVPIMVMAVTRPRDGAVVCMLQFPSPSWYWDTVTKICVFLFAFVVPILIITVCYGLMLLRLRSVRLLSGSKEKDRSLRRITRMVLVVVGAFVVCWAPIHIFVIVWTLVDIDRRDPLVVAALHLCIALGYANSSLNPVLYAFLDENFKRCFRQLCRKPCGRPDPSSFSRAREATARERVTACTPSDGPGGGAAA
T9 sequence (P41968 whole entry): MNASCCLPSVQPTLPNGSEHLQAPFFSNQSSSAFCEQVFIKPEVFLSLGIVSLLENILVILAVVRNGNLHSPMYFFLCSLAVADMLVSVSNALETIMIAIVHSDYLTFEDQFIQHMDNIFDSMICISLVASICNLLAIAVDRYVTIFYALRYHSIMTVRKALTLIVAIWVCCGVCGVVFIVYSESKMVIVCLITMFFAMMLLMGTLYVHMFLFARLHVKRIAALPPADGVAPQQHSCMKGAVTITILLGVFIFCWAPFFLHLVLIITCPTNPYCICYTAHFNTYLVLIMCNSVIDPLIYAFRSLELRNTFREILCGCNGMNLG
T6 sequence (P41146 whole entry): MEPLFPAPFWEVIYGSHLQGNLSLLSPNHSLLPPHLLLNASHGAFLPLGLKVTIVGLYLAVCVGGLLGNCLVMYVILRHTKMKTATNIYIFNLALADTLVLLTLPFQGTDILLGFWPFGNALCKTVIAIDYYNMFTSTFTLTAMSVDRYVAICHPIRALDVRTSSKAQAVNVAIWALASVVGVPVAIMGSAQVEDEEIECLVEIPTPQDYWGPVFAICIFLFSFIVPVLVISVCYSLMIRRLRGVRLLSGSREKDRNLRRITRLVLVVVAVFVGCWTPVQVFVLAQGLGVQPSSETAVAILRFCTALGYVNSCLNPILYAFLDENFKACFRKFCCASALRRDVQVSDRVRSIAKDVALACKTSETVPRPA
T1 sequence (P25103 whole entry): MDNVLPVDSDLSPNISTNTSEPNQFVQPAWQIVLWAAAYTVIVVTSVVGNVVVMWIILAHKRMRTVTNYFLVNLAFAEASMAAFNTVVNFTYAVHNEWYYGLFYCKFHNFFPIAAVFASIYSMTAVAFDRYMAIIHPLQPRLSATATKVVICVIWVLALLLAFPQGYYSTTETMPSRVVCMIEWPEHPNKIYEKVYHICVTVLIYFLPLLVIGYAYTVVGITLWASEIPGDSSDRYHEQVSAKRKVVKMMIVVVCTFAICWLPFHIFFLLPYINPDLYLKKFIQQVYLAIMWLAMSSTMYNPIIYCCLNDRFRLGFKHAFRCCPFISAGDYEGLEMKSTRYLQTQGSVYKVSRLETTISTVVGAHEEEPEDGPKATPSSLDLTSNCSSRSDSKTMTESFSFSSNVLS
T8 sequence (P32245 whole entry): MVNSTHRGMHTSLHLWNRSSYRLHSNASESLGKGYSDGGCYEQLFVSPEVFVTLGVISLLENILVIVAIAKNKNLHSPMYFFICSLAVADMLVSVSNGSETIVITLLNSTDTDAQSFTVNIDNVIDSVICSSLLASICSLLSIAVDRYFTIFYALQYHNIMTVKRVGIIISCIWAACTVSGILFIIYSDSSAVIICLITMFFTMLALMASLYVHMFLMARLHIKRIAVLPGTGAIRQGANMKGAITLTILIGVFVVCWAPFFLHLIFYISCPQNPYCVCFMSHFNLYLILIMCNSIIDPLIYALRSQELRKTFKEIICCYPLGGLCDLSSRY
T7 sequence (P41145 whole entry): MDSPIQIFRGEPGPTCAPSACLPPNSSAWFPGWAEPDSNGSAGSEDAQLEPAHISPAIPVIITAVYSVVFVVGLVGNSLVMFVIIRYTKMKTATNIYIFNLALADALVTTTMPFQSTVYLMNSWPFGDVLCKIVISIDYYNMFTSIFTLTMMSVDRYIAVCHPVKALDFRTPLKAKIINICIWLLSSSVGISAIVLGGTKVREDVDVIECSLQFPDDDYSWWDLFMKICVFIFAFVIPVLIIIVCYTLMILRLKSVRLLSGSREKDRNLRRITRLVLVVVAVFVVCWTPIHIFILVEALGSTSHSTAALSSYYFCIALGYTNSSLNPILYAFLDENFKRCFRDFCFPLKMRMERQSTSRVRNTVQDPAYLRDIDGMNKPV
T11 sequence (Q99705 whole entry): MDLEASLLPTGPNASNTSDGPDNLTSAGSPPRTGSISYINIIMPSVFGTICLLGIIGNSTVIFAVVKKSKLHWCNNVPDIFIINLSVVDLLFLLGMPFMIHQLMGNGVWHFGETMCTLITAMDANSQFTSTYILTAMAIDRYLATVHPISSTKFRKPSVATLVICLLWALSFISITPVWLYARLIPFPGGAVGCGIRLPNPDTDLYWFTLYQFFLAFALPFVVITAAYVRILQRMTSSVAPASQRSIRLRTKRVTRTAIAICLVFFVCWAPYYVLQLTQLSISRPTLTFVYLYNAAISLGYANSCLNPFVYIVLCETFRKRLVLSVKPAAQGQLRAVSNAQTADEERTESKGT
T3 sequence (P35372 whole entry): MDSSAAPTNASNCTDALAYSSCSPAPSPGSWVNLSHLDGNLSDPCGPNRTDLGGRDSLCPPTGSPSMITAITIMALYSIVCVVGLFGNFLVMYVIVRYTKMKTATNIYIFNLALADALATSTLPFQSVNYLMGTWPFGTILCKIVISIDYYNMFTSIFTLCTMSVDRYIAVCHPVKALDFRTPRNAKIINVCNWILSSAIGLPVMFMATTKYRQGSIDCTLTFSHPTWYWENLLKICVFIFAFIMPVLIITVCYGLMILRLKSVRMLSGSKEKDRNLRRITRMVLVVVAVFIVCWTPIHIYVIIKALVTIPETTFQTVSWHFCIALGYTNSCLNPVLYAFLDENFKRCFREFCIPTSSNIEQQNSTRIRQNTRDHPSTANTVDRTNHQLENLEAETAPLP
T2 sequence (P33032 whole entry): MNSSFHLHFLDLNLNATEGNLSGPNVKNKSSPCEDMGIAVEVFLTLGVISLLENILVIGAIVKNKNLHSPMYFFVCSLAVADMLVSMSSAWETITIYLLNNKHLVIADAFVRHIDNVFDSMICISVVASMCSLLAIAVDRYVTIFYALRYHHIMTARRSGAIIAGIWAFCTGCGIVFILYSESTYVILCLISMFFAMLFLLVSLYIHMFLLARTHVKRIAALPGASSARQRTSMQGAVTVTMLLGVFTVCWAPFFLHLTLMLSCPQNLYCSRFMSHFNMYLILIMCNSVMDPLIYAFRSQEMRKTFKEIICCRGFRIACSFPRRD

Row | Compound | A8: inhibition of radioligand binding (Human neurokinin (NK1)) | A5: inhibition of radioligand binding (Human melanocortin (MC5)) | A7: inhibition of radioligand binding (Human μ-opioid (MOP)) | A1: inhibition of radioligand binding (Human δ-opioid (DOP)) | A11: inhibition of radioligand binding (Mouse urotensin (mUR2)) | A10: inhibition of radioligand binding (Human opioid (ORL1)) | A2: inhibition of radioligand binding (Human κ-Opioid (KOP)) | A4: inhibition of radioligand binding (Human Melanocortin (MC4)) | A3: inhibition of radioligand binding (Human Melanocortin (MC3)) | A9: inhibition of radioligand binding [1] | A6: inhibition of radioligand binding [2]
1 | COCC1OC(OCc2ccc3ccccc3c2)C(NC(=O)CN)C(OCc2ccc(Cl)cc2)C1O (stereo not drawn) [compound 235] | + (“+” indicates greater than 50% inhibition at 10 μM) | − (“−” indicates less than 50% inhibition at 10 μM) | − (“−” indicates less than 50% inhibition at 10 μM) | + (“+” indicates greater than 50% inhibition at 10 μM) | − (“−” indicates less than 50% inhibition at 10 μM) | − (“−” indicates less than 50% inhibition at 10 μM) | − (“−” indicates less than 50% inhibition at 10 μM) | − (“−” indicates less than 50% inhibition at 10 μM) | − (“−” indicates less than 50% inhibition at 10 μM) | − (“−” indicates less than 50% inhibition at 10 μM) | − (“−” indicates less than 50% inhibition at 10 μM)
2 | COCC1OC(OCc2ccc3ccccc3c2)C(NC(=O)CNC(=N)N)C(OCc2ccc(Cl)cc2)C1O (stereo not drawn) [compound 236] | + (“+” indicates greater than 50% inhibition at 10 μM) | + (“+” indicates greater than 50% inhibition at 10 μM) | − (“−” indicates less than 50% inhibition at 10 μM) | − (“−” indicates less than 50% inhibition at 10 μM) | − (“−” indicates less than 50% inhibition at 10 μM) | − (“−” indicates less than 50% inhibition at 10 μM) | − (“−” indicates less than 50% inhibition at 10 μM) | + (“+” indicates greater than 50% inhibition at 10 μM) | + (“+” indicates greater than 50% inhibition at 10 μM) | − (“−” indicates less than 50% inhibition at 10 μM) | + (“+” indicates greater than 50% inhibition at 10 μM)
3 | COCC1OC(OCc2ccc3ccccc3c2)C(NC(=O)CCN)C(OCc2ccc(Cl)cc2)C1O (stereo not drawn) [compound 237] | + (“+” indicates greater than 50% inhibition at 10 μM) | + (“+” indicates greater than 50% inhibition at 10 μM) | − (“−” indicates less than 50% inhibition at 10 μM) | − (“−” indicates less than 50% inhibition at 10 μM) | − (“−” indicates less than 50% inhibition at 10 μM) | − (“−” indicates less than 50% inhibition at 10 μM) | − (“−” indicates less than 50% inhibition at 10 μM) | − (“−” indicates less than 50% inhibition at 10 μM) | − (“−” indicates less than 50% inhibition at 10 μM) | − (“−” indicates less than 50% inhibition at 10 μM) | − (“−” indicates less than 50% inhibition at 10 μM)

Reference: patent US20080009418A1, “Selective Inhibitors” (Alchemia LTD., priority 2004, published 2008)
